The numbers were not newly measured in patent US20250249020A1, “COLLOIDALLY STABLE HEME-ALBUMIN COMPLEXES AND METHODS OF MAKING AND USING THEREOF” (Ohio State Innovation Foundation, priority 2022, published 2025), which cites them from elsewhere.

Each structure is given as a SMILES string.

This series concerns the target Hpx. Conditions: heme binding, background.

Regarding `C=CC1=C(C)c2cc3[n-]c(cc4[n-]c(cc5nc(cc1n2)C(C)=C5C=C)c(C)c4CCC(=O)O)c(CCC(=O)O)c3C.[Fe+2]` [heme], the Kd (as a rule, the concentration at which binding is half-saturated) was ~10 nM.
